Laboratory results as given in ChEMBL document CHEMBL1201862, “PubChem BioAssay data set” (2004).
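The compound was tested at five concentrations on cells cultured in 96-well plates, with a 48-hour exposure period. GI50 = concentration required for 50% inhibition of growth.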 Calls of active or inactive are those of the source. No stated cut-off is given here; in the data, active = GI50 up to about 1.1 µM and inactive = higher.

What was measured:
Experiment in all cases: DTP human tumour cell line panel, 48 h
[1] = tested on: SNB-75
[2] = tested on: Hs-578T
[3] = tested on: EKVX
[4] = tested on: MCF7
[5] = tested on: OVCAR-5
[6] = tested on: NCI-H522
[7] = tested on: OVCAR-3
[8] = tested on: UACC-257
[9] = tested on: M14
[10] = tested on: SK-MEL-28
[11] = tested on: CAKI-1
[12] = tested on: A549
[13] = tested on: HOP-62
[14] = tested on: IGROV-1
[15] = tested on: OVCAR-4
[16] = tested on: DU-145
[17] = tested on: ACHN
[18] = tested on: PC-3
[19] = tested on: MDA-N
[20] = tested on: SK-MEL-2
[21] = tested on: SW-620
[22] = tested on: NCI/ADR-RES
[23] = tested on: SF-295
[24] = tested on: SN12C
[25] = tested on: KM12
[26] = tested on: TK-10
[27] = tested on: LOX IMVI
[28] = tested on: SF-268
[29] = tested on: HOP-92
[30] = tested on: U-251
[31] = tested on: HT-29
[32] = tested on: RXF 393
[33] = tested on: MOLT-4
[34] = tested on: SR
[35] = tested on: CCRF-CEM
[36] = tested on: NCI-H460
[37] = tested on: HCT-15
[38] = tested on: MDA-MB-435
[39] = tested on: HL-60
[40] = tested on: UACC-62
[41] = tested on: A498
[42] = tested on: HCC 2998
[43] = tested on: COLO 205
[44] = tested on: RPMI-8226
[45] = tested on: T47D
[46] = tested on: Malme-3M
[47] = tested on: NCI-H23
[48] = tested on: HCT-116
[49] = tested on: OVCAR-8
[50] = tested on: SNB-19
[51] = tested on: 786-0
[52] = tested on: K562
[53] = tested on: BT-549
[54] = tested on: UO-31
[55] = tested on: SK-MEL-5
[56] = tested on: NCI-H226
[57] = tested on: SF-539

Measured: GI50

Cc1ccc2c(c1C)C(=O)/C(=C/c1ccccc1C(=O)O)C2
> 100 µM: [37]
inactive: [1] > 100 µM | [2] > 100 µM | [3] > 100 µM | [4] > 100 µM | [5] > 100 µM | [6] > 100 µM | [7] > 100 µM | [8] > 100 µM | [9] > 100 µM | [10] > 100 µM | [11] > 100 µM | [12] > 100 µM | [13] > 100 µM | [14] > 100 µM | [15] > 100 µM | [16] > 100 µM | [17] > 100 µM | [18] > 100 µM | [19] > 100 µM | [20] > 100 µM | [21] > 100 µM | [22] > 100 µM | [23] > 100 µM | [24] > 100 µM | [25] > 100 µM | [26] > 100 µM | [27] > 100 µM | [28] > 100 µM | [29] > 100 µM | [30] > 100 µM | [31] > 100 µM | [32] > 100 µM | [33] > 100 µM | [34] > 100 µM | [35] 76.9 µM | [36] > 100 µM | [38] > 100 µM | [39] > 100 µM | [40] > 100 µM | [41] > 100 µM | [42] > 100 µM | [43] > 100 µM | [44] 45.3 µM | [45] > 100 µM | [46] > 100 µM | [47] > 100 µM | [48] > 100 µM | [49] > 100 µM | [50] > 100 µM | [51] > 100 µM | [52] > 100 µM | [53] 20.7 µM | [54] > 100 µM | [55] 42.3 µM | [56] > 100 µM | [57] > 100 µM
